Patent US20250025454A1 (priority 2021, published 2025)
Several values for one entry are separate records, joined by “and”; a condition that tells them apart may be missing. Identical values can stand only once. Entries after “also recorded” stand apart in the source; their conditions may differ. Like-named read-outs stand apart in the source and are kept apart here.

Assays:
[1] = single oral dose, comparable for all doses, cited from earlier work
[2] = Pharmacokinetics (plasma, lung at 24 h) after single oral dosing in male Sprague-Dawley rats; conditions: for AUC∞ / t1/2 / Cmax / AUC(0-t) / AUC(0-inf) / Tmax: male SD rat plasma; for AUC(0-t): AUClast
[3] = female, 129S1, mouse, in vivo, po
SARS-CoV-2 = conditions: Scripps ReFrame database; cited from earlier work
[4] = Pharmacokinetics (plasma and lung tissue) after single and 5-day repeat oral dosing in female 129S1 mice; conditions: for adverse reactions / tolerability: female 129S1 mice, PO 50 and 250 mg/kg up to 5 days; for Kp: Lung/Plasma AUC ratio
[5] = single oral 250 mg/kg (Group 1), individual rats 450, 451, 452, listed as MDL-001, 250 mg/kg
[6] = male, Sprague-Dawley, rat, in vivo, po, 250 mg/kg, single oral 250 mg/kg (Group 1), mean
[7] = male, Sprague-Dawley, rat, in vivo, po, 500 mg/kg, single oral 500 mg/kg (Group 2), individual rats 453, 454, 455
[8] = male, Sprague-Dawley, rat, in vivo, po, 500 mg/kg, single oral 500 mg/kg (Group 2), mean
[9] = male, Sprague-Dawley, rat, in vivo, po, 750 mg/kg, single oral 750 mg/kg (Group 3), individual rats 456, 457, 458
[10] = male, Sprague-Dawley, rat, in vivo, po, 750 mg/kg, single oral 750 mg/kg (Group 3), mean
[11] = male, Sprague-Dawley, rat, in vivo, po, 1000 mg/kg, single oral 1000 mg/kg (Group 4), one outlier excluded, mean
[12] = female, 129S1, mouse, in vivo, 250 mg/kg

Cc1c(-c2ccc(O)cc2)n(Cc2ccc(OCCN3CCCCC3)cc2)c2ccc(O)cc12 [Pipendoxifene, 2-(4-hydroxyphenyl)-3-methyl-1-[[4-(2-piperidin-1-ylethoxy)phenyl]methyl]indol-5-ol]
t1/2 [1]: 30 ± 16 h
t1/2 ([1]; listed as pipendoxifene): 30 h
Lung C24 h over SARS-CoV-2 IC50 ([2]; 250 mg/kg): 9.7 fold
Lung C24 h over SARS-CoV-2 IC50 ([2]; 500 mg/kg): 13.7 fold
Lung C24 h over SARS-CoV-2 IC50 ([2]; 1000 mg/kg): 40.9 fold
Lung C24 h over SARS-CoV-2 IC50 ([2]; 6750 mg/kg (so in the source)): 13.3 fold
Lung C24 h over SARS-CoV-2 IC50 ([2]; 'higher dose', sentence in the rat section): 5.4 fold
AUC∞ [2, 5]: 4132 ng·h/mL and 5119 ng·h/mL and 2549 ng·h/mL
t1/2 [2, 5]: 3.83 h and 8.95 h and 5.42 h
t1/2 ([2]; single oral 250 mg/kg (Group 1), mean, listed as MDL-001, 250 mg/kg): 6.06 h
Cmax ([2]; single oral 1000 mg/kg (Group 4), one outlier excluded, individual rats 459, 460, 461, listed as MDL-001, 1000 mg/kg): 501 ng/mL
AUC∞ ([2]; single oral 1000 mg/kg (Group 4), one outlier excluded, individual rats 459, 460, listed as MDL-001, 1000 mg/kg): 7888 ng·h/mL
adverse reactions / tolerability ([2]; male SD rat, single PO dose 250-1000 mg/kg, listed as MDL-001): well tolerated with no adverse clinical signs; also recorded: No adverse reactions were observed
Kp at 24 h ([2]; male, Sprague-Dawley, rat, in vivo, Lung/Plasma C24 h ratios, range, Day 1, across the dose range): 97 to 122
AUC(0-t) ([2]; male, Sprague-Dawley, rat, in vivo, po, 250 mg/kg, single oral 250 mg/kg (Group 1), individual rats 450, 451, 452): 4040 ng·h/mL
AUC(0-t) [2, 6]: 3520 ± 980 ng·h/mL
AUC(0-inf) [2, 6]: 3930 ng·h/mL
Cmax ([2]; male, Sprague-Dawley, rat, in vivo, po, 250 mg/kg, Cmax, single oral 250 mg/kg (Group 1), individual rats 450, 451, 452): 334 ng/mL
Cmax ([2]; male, Sprague-Dawley, rat, in vivo, po, 250 mg/kg, Cmax, single oral 250 mg/kg (Group 1), mean): 311 ± 42 ng/mL
half-life ([2]; male, Sprague-Dawley, rat, in vivo, po, 250 mg/kg, t1/2, male SD rat plasma, single oral 250 mg/kg (Group 1), mean): 6.06 ± 2.62 h
Tmax [2, 6]: 5.33 ± 1.15 h
AUC(0-t) [2, 7]: 5730 ng·h/mL
AUC(0-inf) [2, 7]: 6410 ng·h/mL
AUC(0-inf) [2, 8]: 5850 ng·h/mL
half-life ([2]; male, Sprague-Dawley, rat, in vivo, po, 500 mg/kg, t1/2, male SD rat plasma, single oral 500 mg/kg (Group 2), individual rats 453, 454, 455): 6.08 h
half-life ([2]; male, Sprague-Dawley, rat, in vivo, po, 500 mg/kg, t1/2, male SD rat plasma, single oral 500 mg/kg (Group 2), mean): 5.2 ± 1.34 h
Tmax [2, 7]: 8 h
Tmax [2, 8]: 6.67 ± 1.15 h
AUC(0-t) [2, 9]: 7530 ng·h/mL
AUC(0-inf) [2, 9]: 7920 ng·h/mL
AUC(0-inf) [2, 10]: 5520 ng·h/mL
Cmax ([2]; male, Sprague-Dawley, rat, in vivo, po, 750 mg/kg, Cmax, single oral 750 mg/kg (Group 3), mean): 415 ± 72 ng/mL
half-life ([2]; male, Sprague-Dawley, rat, in vivo, po, 750 mg/kg, t1/2, male SD rat plasma, single oral 750 mg/kg (Group 3), individual rats 456, 457, 458): 4.77 h
Tmax [2, 9]: 8 h
Tmax [2, 10]: 6.67 ± 1.15 h
concentration at 24 h ([2]; male, Sprague-Dawley, rat, in vivo, po, 1000 mg/kg): 13400 ng/g
AUC(0-t) ([2]; male, Sprague-Dawley, rat, in vivo, po, 1000 mg/kg, single oral 1000 mg/kg (Group 4), all data included, mean): 6760 ± 930 ng·h/mL
AUC(0-t) ([2]; male, Sprague-Dawley, rat, in vivo, po, 1000 mg/kg, single oral 1000 mg/kg (Group 4), one outlier excluded, individual rats 459, 460, 461): 3980 ng·h/mL
AUC(0-t) [2, 11]: 5710 ± 1730 ng·h/mL
AUC(0-inf) [2, 11]: 6880 ng·h/mL
half-life ([2]; male, Sprague-Dawley, rat, in vivo, po, 1000 mg/kg, t1/2, male SD rat plasma, single oral 1000 mg/kg (Group 4), all data included, individual rats 459, 460, 461): 4.3 h
half-life ([2]; male, Sprague-Dawley, rat, in vivo, po, 1000 mg/kg, t1/2, male SD rat plasma, single oral 1000 mg/kg (Group 4), all data included, mean): 4.88 ± 0.5 h
half-life ([2]; male, Sprague-Dawley, rat, in vivo, po, 1000 mg/kg, t1/2, male SD rat plasma, single oral 1000 mg/kg (Group 4), one outlier excluded, individual rats 459, 460): 4.3 h
half-life ([2]; male, Sprague-Dawley, rat, in vivo, po, 1000 mg/kg, t1/2, male SD rat plasma, single oral 1000 mg/kg (Group 4), one outlier excluded, mean): 4.73 h
half-life ([2]; male, Sprague-Dawley, rat, in vivo, po, plasma t1/2, range, 250-1000 mg/kg single oral dose): 4.71 to 6.06 h
concentration at 2 h ([2]; male, Sprague-Dawley, rat, plasma, po, 500 mg/kg, Plasma concentration, male SD rat, single oral 500 mg/kg (Group 2), 2 hr, individual rats 453, 454, 455): 136 ng/mL
concentration at 6 h ([2]; male, Sprague-Dawley, rat, plasma, po, 500 mg/kg, Plasma concentration, male SD rat, single oral 500 mg/kg (Group 2), 6 hr, individual rats 453, 454, 455): 428 ng/mL
concentration at 8 h ([2]; male, Sprague-Dawley, rat, plasma, po, 500 mg/kg, Plasma concentration, male SD rat, single oral 500 mg/kg (Group 2), individual rats 453, 454, 455): 561 ng/mL
concentration at 6 h ([2]; male, Sprague-Dawley, rat, plasma, po, 750 mg/kg, Plasma concentration, male SD rat, single oral 750 mg/kg (Group 3), 6 hr, individual rats 456, 457, 458): 381 ng/mL
concentration at 8 h ([2]; male, Sprague-Dawley, rat, plasma, po, 750 mg/kg, Plasma concentration, male SD rat, single oral 750 mg/kg (Group 3), individual rats 456, 457, 458): 497 ng/mL
AUC(0-t) ([2]; male, Sprague-Dawley, rat, plasma, po, 1000 mg/kg, single oral 1000 mg/kg (Group 4), one outlier excluded, individual rats 459, 460, 461): 7440 ng·h/mL
AUC(0-inf) ([2]; male, Sprague-Dawley, rat, plasma, po, 1000 mg/kg, single oral 1000 mg/kg (Group 4), one outlier excluded, individual rats 459, 460): 5880 ng·h/mL
Cmax ([2]; male, Sprague-Dawley, rat, plasma, po, 1000 mg/kg, Cmax, single oral 1000 mg/kg (Group 4), one outlier excluded, individual rats 459, 460, 461): 365 ng/mL
concentration at 6 h ([2]; male, Sprague-Dawley, rat, plasma, po, 1000 mg/kg, Plasma concentration, male SD rat, single oral 1000 mg/kg (Group 4), all data included, 6 hr, individual rats 459, 460, 461): 365 ng/mL
concentration at 4 hr ([2]; male, Sprague-Dawley, rat, plasma, po, 1000 mg/kg, Plasma concentration, male SD rat, single oral 1000 mg/kg (Group 4), one outlier excluded, 4 hr, mean): 381 ng/mL
concentration at 6 hr ([2]; male, Sprague-Dawley, rat, plasma, po, 1000 mg/kg, Plasma concentration, male SD rat, single oral 1000 mg/kg (Group 4), one outlier excluded, 6 hr, individual rats 459, 460, 461): 365 ng/mL
lung concentrations achieved [3]: greater than 30 ug/g
Plasma concentration ([3]; 250 mg/kg, 24 h): 34 ng/mL
activity in HTS (SARS-CoV-2): INACTIVE
Lung Cmax over SARS-CoV-2 IC50 ([4]; 50 mg/kg): 17 fold
Mean plasma concentration ([4]; 50 mg/kg PO single dose, 1.0 hr): 89.1 ng/mL
Lung Cmax over SARS-CoV-2 IC50 ([4]; 250 mg/kg): 121 fold
Mean plasma concentration ([4]; 250 mg/kg PO single dose, 0.5 hr): 88.8 ng/mL
adverse reactions / tolerability [4]: no adverse events
adverse reactions / tolerability ([4]; listed as MDL-001): well tolerated with no adverse clinical signs; also recorded: No adverse reactions were observed
adverse reactions / tolerability ([4]; listed as pipendoxifene): No adverse reactions were observed
concentration at 8 hr ([4]; female, 129S1, mouse, in vivo, 50 mg/kg): 7840 ng/g
Kp ([4]; female, 129S1, mouse, in vivo, 50 mg/kg, Day 1, 50 mg/kg): 65
Kp ([4]; female, 129S1, mouse, in vivo, 50 mg/kg, Day 5, 50 mg/kg): 56
concentration at 8 h [4, 12]: 575 ± 194 ng/mL
concentration at 8 hr [4, 12]: 121 ng/mL
half-life [4, 12]: 2.36 to 3.96 h
Kp ([4]; female, 129S1, mouse, in vivo, 250 mg/kg, Day 1, 250 mg/kg): 36
Kp ([4]; female, 129S1, mouse, in vivo, 250 mg/kg, Day 5, 250 mg/kg): 44
